Values of other authors as cited in patent EP0890570A2, “Tertiary alkyl primary amines and process for preparing the same” (ROHM AND HAAS COMPANY, priority 1997, dated 1999).

Details: conventional comparison amines, stated without source or method

pKa	SMILES
10	CCCCCCCCCN [n-nonylamine]
10	CC(C)CCCCCCN [iso-nonylamine]
